Common to all, as to assay type: cell-based, human
One assay has as its system C-8161 melanoma cells. Briefly: Soft agar colony formation assay, combination with cisplatin. The following applies: 0.25 to 1.5 μM cisplatin, 5 days, compared to untreated control cells. The protocol: Soft agar assays were conducted in order to investigate the ability of anti-Axl antibodies of the invention to inhibit anchorage-independent cell growth either alone or in combination with chemotherapeutic agents. The soft agar colony formation assay is a standard in vitro assay to test for transformed cells, as only transformed cells are able to grow in soft agar.
In brief, 750 C-8161 melanoma cells either remained untreated or were pre-incubated with the antagonistic rat anti-Axl antibody 11B7 at 15 μg/ml in IMDM medium (Gibco) for 30 min at 37° C. Subsequently, cells were combined with Difco noble agar solution resulting in 50 μl of top agar cell suspension at concentrations of Agar, FCS, and 11B7 of 0.35%, 0.2%, and 7.5 μg/ml, respectively. This cell suspension was plated on top of 50 μl of a 0.7% agarose bottom layer containing 20% FCS, and was finally covered with another 50 μl of a feeding layer solution that contains 0.2% FCS as well as cisplatin in according concentrations. In the whole of 150 μl per sample, the final concentrations of 11B7 and cisplatin were 2.5 μg/ml and 1.5 μM, 1.0 μM, 0.75 μM, 0.5 μM, or 0.25 μM, respectively. Colonies were allowed to form for 5 days and were then stained with 50 μl MTT (Sigma, 1 mg/ml in PBS) for 3 hours at 37° C. Using a Scanalyzer HTS camera system in conjunction with the HTS Bonit colony formation software (Lemnatec, Wuerselen), the effect of the antagonistic rat anti-Axl antibody 11B7 in the absence or presence of cisplatin were analyzed in triplicates.

Assay [1] deals with NCI/ADR-RES ovarian cancer cells. Briefly: TUNEL staining, combination with doxorubicin. To be noted: 24 h. From the text:
As rat anti-Axl antibodies of the invention turned out to interfere with Gas6-mediated anti-apoptosis of serum-starved NIH3T3-Axl cl.7 fibroblasts, the question arose, whether antagonistic anti-Axl antibodies would synergize with chemotherapeutic agents in inducing apoptosis, thereby contributing to overcome drug resistance. In this example, NCI/ADR-RES (originally named MCF-7/AdrR) cells—a ovarian cancer cell line (Liscovitch and Ravid, 2007, Cancer Letters, 245, 350-352) displaying a high level of resistance to several agents including doxorubicin (Fairchild et al., 1987, Cancer Research, 47, 5141-5148; Xu et al., 2002, The Journal of Pharmacology and Experimental Therapeutics, 302, 963-971)—were incubated with the antagonistic anti-Axl antibody 11B7 and/or doxorubicin, and apoptosis rates were determined by TUNEL staining. In brief, 3×10^4 NCI/ADR-RES cells in normal growth medium were seeded per well of an 8-chamber culture slide (BD Falcon, cat#354118) which were pre-incubated with the same medium for 1 h at 37° C. The next morning, normal growth medium was removed and cells were washed with and cultured in serum-reduced (0.5% FCS) medium. In the evening, isotypic control antibody 1D5 or the antagonistic anti-Axl antibody 11B7 were added at final concentrations of 10 μg/ml each. In the morning of day 3, doxorubicin at final concentrations of 100 μM, 150 μM, or 200 μM was added, and cells were incubated at 37° C. After 24 h, cells were rinsed once with PBS, fixed with 4% formaldehyde in PBS (pH 7.5) for 20 min at room temperature, air-dried for 5 min, and stored at −20° C. Using the commercially available Fluorescein-FragEL™ kit (Oncogene, cat#QIA39, presently being distributed through Merck-Calbiochem), TUNEL staining was performed according to the supplier's manual instructions (chapter ‘Fluorescein-FragEL™ of cell preparations fixed on slides’, page 10). Applying fluorescence microscopy, cells were analyzed and photos were taken.

For assay [2], the system named is NCI-H292 lung cancer cells. Briefly: Wound healing/scratch assay. The following applies: 10 μg/ml antibody, 24 h, compared to isotypic control antibody. From the text: To examine the migration and proliferation rates of different cells and culture conditions, in vitro wound healing/scratch assays are being employed for many years. These assays generally involve growing a confluent cell monolayer first. A small area is then disrupted and a group of cells are being destroyed or displaced by scratching a line through the layer with, for example, a pipette tip. The open gap is then inspected microscopically over time as the cells move in and fill the damaged area (“healing”). In brief, 1.5×10^6 NCI-H292 lung cancer cells were seeded per well of a 12 well dish and cultured in normal growth medium (RPMI, 10% FCS). After 8 h, cells were rinsed with PBS and starved in low serum medium (RPMI, 0.5% FCS) over night for 24 h. Using a sterile 200 μl pipette tip, three separate uniform wounds per well were scratched through the confluent NCI-H292 cell monolayers. […] Cells were permitted to migrate into the area of clearing for 24 h, washed once with PBS and fixed with ice cold Methanol (100%) at −20° C. After cells were stained with crystal violet (0.5% in 20% Methanol), rinsed with water and dried over night, photos of the wounds were taken.

Turning to `N.N.[Cl][Pt][Cl]` [cisplatin, reference compound], in the assay with C-8161 melanoma cells, the “soft agar colony growth, cisplatin alone” value is recorded as “colony growth retardation in a dose-dependent manner”.

For the molecule `COc1cccc2c1C(=O)c1c(O)c3c(c(O)c1C2=O)C[C@@](O)(C(=O)CO)C[C@@H]3O[C@H]1C[C@H](N)[C@H](O)[C@H](C)O1` [doxorubicin, reference compound], the “apoptosis (TUNEL staining), doxorubicin with control antibody, 100 μM” value in assay [1] (100 μM doxorubicin + 10 μg/ml control antibody) was “No TUNEL staining, and hence no apoptosis”. Moreover, the “apoptosis (TUNEL staining), doxorubicin with control antibody, 150 μM” value in assay [1] (150 μM doxorubicin + 10 μg/ml control antibody) is on record as “only very week apoptosis”.

B1: Ch11D5-IgG2: chimeric anti-AXL antibody 11D5 with human IgG2 (antibody)
heavy: EVQLQESGPGLVKPSQSLSLTCSVTGYSITSNYWGWIRKFPGNKMEWIGHITNSGNTTYNPSLKSRISISRDTSRNQFFLQLNSVTTEDTATYYCAKGAFDYWGQGVMVTVSSASTKGPSVFPLAPCSRSTSESTAALGCLVKDYFPEPVTVSWNSGALTSGVHTFPAVLQSSGLYSLSSVVTVPSSNFGTQTYTCNVDHKPSNTKVDKTVERKCCVECPPCPAPPVAGPSVFLFPPKPKDTLMISRTPEVTCVVVDVSHEDPEVQFNWYVDGVEVHNAKTKPREEQFNSTFRVVSVLTVVHQDWLNGKEYKCKVSNKGLPAPIEKTISKTKGQPREPQVYTLPPSREEMTKNQVSLTCLVKGFYPSDIAVEWESNGQPENNYKTTPPMLDSDGSFFLYSKLTVDKSRWQQGNVFSCSVMHEALHNHYTQKSLSLSPGK
light: DIQMTQSPSSMSTSLGDRVTITCRASQDIGNYLSWFQQKVGKSPRRMIYGAIKLAVGVPSRFSGSRSGSDYSLTISSLESEDMAIYYCLQYIQFPLTFGSGTKLELKRTVAAPSVFIFPPSDEQLKSGTASVVCLLNNFYPREAKVQWKVDNALQSGNSQESVTEQDSKDSTYSLSSTLTLSKADYEKHKVYACEVTHQGLSSPVTKSFNRGEC
Turning to B1, the “re-population of the cleared area (wound closure)” value in assay [2] was “reduced the re-population of the cleared area”.

B2: ch11B7-IgG2: chimeric anti-AXL antibody 11B7 with human IgG2 (antibody)
heavy: EVQLQESGPGLVKPSQSLSLTCSVTGYSITSNYWGWIRKFPGDKMEWMGYITYSGSTSYNPSLKSRISITRDTSKNQFFLQLNSVTSEDTATYYCAITTFYYWGQGVMVTVSSASTKGPSVFPLAPCSRSTSESTAALGCLVKDYFPEPVTVSWNSGALTSGVHTFPAVLQSSGLYSLSSVVTVPSSNFGTQTYTCNVDHKPSNTKVDKTVERKCCVECPPCPAPPVAGPSVFLFPPKPKDTLMISRTPEVTCVVVDVSHEDPEVQFNWYVDGVEVHNAKTKPREEQFNSTFRVVSVLTVVHQDWLNGKEYKCKVSNKGLPAPIEKTISKTKGQPREPQVYTLPPSREEMTKNQVSLTCLVKGFYPSDIAVEWESNGQPENNYKTTPPMLDSDGSFFLYSKLTVDKSRWQQGNVFSCSVMHEALHNHYTQKSLSLSPGK
light: DIQMTQAPSSLPASLGDRVTITCRASQDIGNYLRWFQQKPGKSPRLMISGATNLAAGVPSRFSGSRSGSDYSLTISSLESEDMADYYCLQSKESPWTFGGGTKLELKRTVAAPSVFIFPPSDEQLKSGTASVVCLLNNFYPREAKVQWKVDNALQSGNSQESVTEQDSKDSTYSLSSTLTLSKADYEKHKVYACEVTHQGLSSPVTKSFNRGEC
As to B2, in assay [2], the “re-population of the cleared area (wound closure)” value was “reduced the re-population of the cleared area”.

The values are drawn from patent publication US8933202B2, “AXL antibodies” (U3 Pharma GmbH, priority 2007, dated 2015).
